Patent publication US10959986B2, “Inhibitors of indoleamine 2,3-dioxygenase and methods of their use” (BRISTOL-MYERS SQUIBB COMPANY, priority 2018, dated 2021)
Where two headings read alike, the source gives them in different places.

Molecular target: T1, indoleamine 2,3-dioxygenase (IDO) (Homo sapiens, UniProt P14902)
T1 construct: media containing IFNγ (#285-IF/CF, R&D Systems) at a final concentration of 25 ng/mL; endogenous in cells; host or cells: HeLa (ATCC CCL-2), induced with IFN-gamma
Assay: HeLa cell-based indoleamine 2,3-dioxygenase (IDO) assay
Conditions: HeLa cells with IFNγ 25 ng/mL, 48 hour incubation, kynurenine production
Method: Assessment of Inhibitor Activity in HeLa Cell-Based Indoleamine 2,3-Dioxygenase (IDO) Assay.
HeLa (ATCCR CCL-2) cells were obtained from the ATCC® and cultured in Dulbecco's Modified Eagle Medium supplemented with 4.5 g/L glucose, […] L-glutamine and […] (#10-013-CV, Corning), 2 mM L-alanyl-L-glutamine dipeptide (#35050-061, Gibco), 100U/mL penicillin, 100 µg/mL streptomycin (#SV30010, HyClone) and 10% fetal bovine serum (#SH30071.03 HyClone). Cells were maintained in a humidified incubator at 37° C. in 5% CO2.
IDO activity was assessed as a function of kynurenine production as follows: HeLa cells were seeded in a 96-well culture plate at a density of 5,000 cells/well and allowed to equilibrate overnight. After 24 hours, the media was aspirated and replaced with media containing IFNγ (#285-IF/CF, R&D Systems) at a final concentration of 25 ng/mL. A serial dilution of each test compound was added to the cells in a total volume of 200 μL of culture medium. After a further 48 hour incubation, 170 μL of supernatant was transferred from each well to a fresh 96-well plate. 12.1 μL of 6. IN trichloroacetic acid (#T0699, Sigma-Aldrich) was added to each well and mixed, followed by incubation at 65° C. for 20 minutes to hydrolyze N-formylkynurenine, the product of indoleamine 2,3-dioxygenase, to kynurenine. The reaction mixture was then centrifuged for 10 mins at 500×g to sediment the precipitate. 100 μL of the supernatant was transferred from each well to a fresh 96-well plate. 100 μl of 2% (w/v) p-dimethylaminobenzaldehyde (#15647-7, Sigma-Aldrich) in acetic acid (#A6283, Sigma-Aldrich) was added to each well mixed and incubated at room temperature for 20 mins. Kynurenine concentrations were determined by measuring absorbance at 480 nm and calibrating against an L-kynurenine (#K8625, Sigma-Aldrich) standard curve using a SPECTRAMAX® M2e microplate reader (Molecular Devices). The percentage activity at each inhibitor concentration was determined and IC50 values assessed using nonlinear regression.

[1] = read-out: IDO Hela IC50 potency class (A < 50, B < 250, C < 2000)

T1 sequence (P14902 whole entry): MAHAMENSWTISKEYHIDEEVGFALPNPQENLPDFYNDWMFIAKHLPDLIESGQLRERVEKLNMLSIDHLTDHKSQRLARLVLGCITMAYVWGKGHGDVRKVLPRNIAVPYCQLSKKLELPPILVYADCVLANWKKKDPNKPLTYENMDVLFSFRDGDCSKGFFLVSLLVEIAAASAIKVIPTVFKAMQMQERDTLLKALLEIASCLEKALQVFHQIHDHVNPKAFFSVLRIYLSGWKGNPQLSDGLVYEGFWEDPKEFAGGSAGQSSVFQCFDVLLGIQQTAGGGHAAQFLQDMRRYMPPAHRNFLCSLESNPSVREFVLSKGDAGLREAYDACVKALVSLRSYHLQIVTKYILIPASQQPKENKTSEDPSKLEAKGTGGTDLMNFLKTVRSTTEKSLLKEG

Row | Compound | IC50 (read-out: IDO Hela IC50) [nM] | IC50 [1] [nM]
1 | CCOc1ncc(Nc2cc([C@H](CC)CC(=O)O)ccc2-c2cccc3[nH]ncc23)cn1 (single isomer, unassigned) [Example 50] | ≥ 1000 | 250 to 2000
2 | CCOc1ncc(Nc2cc([C@H](CC)CC(=O)O)ccc2-c2ccncc2F)cn1 (single isomer, unassigned) [Example 52] | ≥ 1000 | 250 to 2000
3 | CCOc1ncc(Nc2cc([C@H](CC)CC(=O)O)ccc2-c2cnn(CCN3CCOCC3)c2)cn1 (single isomer, unassigned) [Example 55] | ≥ 1000 | 250 to 2000
4 | CCOc1ncc(Nc2cc([C@H](CC)CC(=O)O)ccc2C2=CC3CCC(C2)N3C(=O)OC(C)(C)C)cn1 (single isomer, unassigned) [Example 56] | 390 | 
5 | CCc1ncc(Nc2cc([C@@H](CC)CC(=O)O)ccc2-c2sc(C)nc2C)cn1 (single isomer, unassigned) [Example 58] | 390 | 
6 | CCOc1ncc(Nc2cc([C@H](CC)CC(=O)O)ccc2-c2ccc(C#N)cn2)cn1 (single isomer, unassigned) [Example 62] | 890 | 
7 | CCOc1ncc(Nc2cc([C@H](CC)CC(=O)O)ccc2-c2ncc(F)cn2)cn1 (single isomer, unassigned) [Example 63] | 700 | 
8 | CCOc1ncc(Nc2cc([C@H](CC)CC(=O)O)ccc2-c2cnc(OCC)nc2)cn1 (single isomer, unassigned) [Example 64] | ≥ 1000 | 250 to 2000
9 | CCOc1ncc(Nc2cc([C@H](CC)CC(=O)O)ccc2-c2ccc3nc(C)oc3c2)cn1 (single isomer, unassigned) [Example 65] | ≥ 1000 | 250 to 2000
10 | CCOc1ncc(Nc2cc([C@H](CC)CC(=O)O)ccc2-c2cccc(C(F)F)n2)cn1 (single isomer, unassigned) [Example 66] | 750 | 
11 | CCOc1ncc(Nc2cc([C@H](CC)CC(=O)O)ccc2-c2c[nH]c3cnccc23)cn1 (single isomer, unassigned) [Example 67] | ≥ 1000 | 250 to 2000
12 | CCOc1ncc(Nc2cc([C@H](CC)CC(=O)O)ccc2-c2ccc3nc(C)sc3c2)cn1 (single isomer, unassigned) [Example 68] | 500 | 

These reach a lower IC50 (read-out: IDO Hela IC50). Values come first.

Row | IC50 (read-out: IDO Hela IC50) [nM] | IC50 [1] [nM] | Compound
13 | 50 |  | COC[C@H](CC(=O)O)c1ccc(-c2cnn(Cc3ccc(OC)cc3)c2)c(Nc2ccc(C#N)cc2)c1 (single isomer, unassigned) [Example 45]
14 | 40 |  | CCOc1ncc(Nc2cc([C@H](CC)CC(=O)O)ccc2-c2ccoc2)cn1 (single isomer, unassigned) [Example 46]
15 | 10 |  | CCOc1ncc(Nc2cc([C@H](CC)CC(=O)O)ccc2-c2cnn(Cc3ccc(OC)cc3)c2)cn1 (single isomer, unassigned) [Example 47]
16 | 340 |  | CCOc1ncc(Nc2cc([C@H](CC)CC(=O)O)ccc2-c2cnn(-c3ccc(F)cc3)c2)cn1 (single isomer, unassigned) [Example 48]
17 | 30 |  | CCOc1ncc(Nc2cc(C(CC)CC(=O)O)ccc2-c2ccc(OC)c(F)c2)cn1 (single isomer, unassigned) [Example 49]
18 | 150 |  | CCOc1ncc(Nc2cc([C@H](CC)CC(=O)O)ccc2-c2ccc3c(cnn3C)c2)cn1 (single isomer, unassigned) [Example 51]
19 | 30 |  | CCOc1ncc(Nc2cc([C@H](CC)CC(=O)O)ccc2-c2ccc(OC)cc2F)cn1 (single isomer, unassigned) [Example 53]
20 | 90 |  | CCOc1ncc(Nc2cc([C@H](CC)CC(=O)O)ccc2-c2c(C)noc2C)cn1 (single isomer, unassigned) [Example 54]
21 | 110 |  | CCc1ncc(Nc2cc([C@H](CC)CC(=O)O)ccc2-c2sc(C)nc2C)cn1 (single isomer, unassigned) [Example 57]
22 | 220 |  | COC[C@@H](CC(=O)O)c1ccc(-c2sc(C)nc2C)c(Nc2ccc(C#N)cc2)c1 (single isomer, unassigned) [Example 59]
23 | 10 |  | CCOc1ncc(Nc2cc([C@H](CC)CC(=O)O)ccc2-c2sc(C)nc2C)cn1 (single isomer, unassigned) [Example 61]
